System: catalepsy induced by the DA receptor antagonist haloperidol
Assay: haloperidol-induced catalepsy in mice
Format: in vivo
Description: Furthermore, haloperidol-induced catalepsy, a model of parkinsonian motor disability, is reduced in M4 knockout mice as compared to wild-type controls. […] The reversal by scopolamine was uncommonly robust and more pronounced than we observe with agents targeting a number of other targets being evaluated for potential antiparkinsonian effects, including metabotropic glutamate (mGlu) receptors mGlu4 or mGlu5, A2A adenosine receptors, and NMDA receptors. […] Taken together with the extensive studies of M4 modulation of basal ganglia and motor function, these studies provide compelling evidence that M4 is the dominant mAChR subtype involved in the antiparkinsonian effects of non-selective mAChR antagonists and provide support for discovery and development of selective M4 antagonists for treatment of neurodegenerative disease such as PD, dystonia, tardive dyskinesia and other movement disorders.

Structure (SMILES): CN1[C@@H]2C[C@@H](OC(=O)[C@H](CO)c3ccccc3)C[C@H]1[C@@H]1O[C@@H]12 [scopolamine]
- reduction of haloperidol-induced catalepsy (M4 KO mice): ineffective
- reversal of haloperidol-induced catalepsy (WT mice): completely reversed
